Experimental data taken from patent publication US10154974B1, “Use of abscisic acid for the prevention and treatment of malaria” (The Regents of the University of California, priority 2015, dated 2018).
Values joined by “and” are separate entries in the source; they are usually repeats but may differ in a detail not shown here. Equal values may be shown once.

Assays:
Anopheles stephensi [1] = experiment: Mosquito egg production and viability; format: in vivo; settings: single ABA-supplemented uninfected bloodmeal
Experimental: The egg laying rate and hatch rate were analyzed using Fisher's exact test. […] Each dot represents the clutch size of a single mosquito. Clutch size was analyzed by unpaired t-test.

gsk3 = gsk3 phosphorylation in mosquito midgut; format: in vivo, Anopheles stephensi; settings: midguts of ABA-treated, P. falciparum-fed mosquitoes
Experimental: Fold change is shown in levels of phosphorylated AMPK (FIG. 13A), and gsk3 (FIG. 13B) in the midguts of ABA-treated, P. falciparum-fed mosquitoes compared to controls. Each dot represents one replicate of 15 pooled midguts. Data were analyzed by one sample t-test. * p<0.05.

P. falciparum 3D7 = experiment: P. falciparum gametocyte formation assay; format: cell-based; settings: 10 nM or 100 nM ABA, 6, 8 or 10 days post culture synchronization
Experimental: Studies of the effects of ABA on gametocyte formation were performed with P. falciparum 3D7 engineered to express GFP under the control of alpha tubulin II and Pfs25 promoters. Parasite cultures were synchronized using sorbitol. At 48 hours post-synchronization, 200 μL aliquots of parasite culture and complete RPMI medium were placed in a 96-well flat-bottomed plate and treated with 10 nM ABA, 100 nM ABA, or a diluent control. Media and treatments were refreshed every 48 hours. At 4, 6 and 8 days after the start of treatment, separate aliquots were harvested, media was removed, and replaced with 10% formalin for 1 hour at room temperature. Formalin was removed and replaced with PBS before gametocyte levels were measured by flow cytometry using a FACS Calibur flow cytometer (BD Biosciences) with a GFP filter. Four replicates were carried out, each using a separate parasite culture passage. Relative changes in gametocyte numbers were normalized to controls set at 1 and analyzed by one-sample t-test.

P. falciparum NF54 = experiment: P. falciparum asexual growth assay; format: cell-based; settings: 10 nM or 100 nM ABA, 48 and 96 hours, relative to untreated control
Experimental: P. falciparum NF54 cultures were synchronized and aliquots plated in complete RPMI 1640 with HEPES, hypoxanthine, and 10% heat inactivated human serum. Parasites were treated with 10 nM ABA, 100 nM ABA, or a diluent control and incubated at 37° C. for 48 or 96 hours before culture media was replaced with 10% formalin in RPMI 1640. Red blood cells were stained with 10 ug/mL propidium iodide (Sigma-Aldrich) in PBS at room temperature for 1 hour and infected cells counted with FACS Calibur flow cytometer (BD Biosciences). Four replicates were carried out, each using a separate parasite culture passage. Relative changes in growth were normalized to controls set at 1 and analyzed by one-sample t-test.

[2] = ABA extraction from mouse plasma and quantification by ELISA; format: in vivo, mice
Experimental: Mice were euthanized on day 7 post-infection. Blood was collected by heart puncture, spun at 8,000 rpm for 8 minutes and the plasma collected for ABA quantification. Livers and spleens were collected, retained in 10% formalin for 24 hours and then stored in 70% ethanol before sectioning and staining with hematoxylin and eosin. Liver sections were blindly scored on a scale from 0 to 3 for pigment levels, Kupffer cell density, portal tract inflammation, hemozoin deposition, extramedullary hematopoiesis, sinusoidal leukocyte density, sinusoidal adherence of leukocytes, and presence of microabscesses. Spleen sections were blindly scored on a scale from 0 to 3 for hyperplasia, extramedullary hematopoiesis, pigment, and levels of histiocytes and neutrophils. Pathology scores of control and treated mice were analyzed by unpaired t-test.
ABA was extracted from mouse plasma as described (Engelberth, J Vis Exp, 2009, 28:1127). Briefly, 50 μL of plasma was added to 200 μL extraction buffer (1-propanol:H2O:concentrated HCL at a 2:1:0.002 volume ratio) and vortexed. […] Dried samples were re-eluted in 100% methanol and ABA levels determined using the Phytodetek Abscisic Acid ELISA kit (Agdia) according to the manufacturer's instructions. ABA levels in the plasma of control and ABA-supplemented mice, 4-5 per group, were analyzed by Mann Whitney test.

[3] = tested on: peroxisome proliferator activated receptor gamma (PPARγ); experiment: PPARγ transcript levels in mouse liver and spleen; format: in vivo, mice; settings: day 7 of infection
Experimental: For mosquito immune gene expression, 20 midguts were dissected from mosquitoes in each treatment group at 1, 2, 4, 6, 8 and 24 hours post-feeding. Midguts were sonicated and stored in Trizol at −20° C. for up to a week before RNA was extracted according to manufacturer's instructions. cDNA synthesis was carried out using QantiTect Reverse Transcription Kit (Qiagen) and 200 ng of cDNA used per reaction for qRT-PCR with Sybr Green (Applied Biosystems). Fold changes in expression levels were calculated using the comparative threshold cycle method. Data were normalized to the housekeeping gene ribosomal protein S7 and to the control treatment. Primers and cycling conditions for AsNOS, defensin, LRIM, TEP1, and APL1 were as previously described (Hauck E S, et al. Microbes Infect. 2013; 15:775-87). For gene expression analysis of mouse liver and spleen, organs were flash frozen after necropsy and stored at −80° C. before RNA was extracted in Trizol and cDNA synthesized. Real-time PCR was performed using TaqMan probe-based expression assays for mouse NOS2, PPARγ (Mm00440940), and β-actin (Applied Biosystems) with volumes and cycling conditions as previously described (Chau et al., Infect Immun, 2013, 81:3515-26). Samples were analyzed in triplicate with 250 ng of cDNA per reaction to confirm uniformity of amplification. […] All expression data were analyzed by one sample t-test.

P. falciparum = experiment: Pfs16 and Pfs25 expression in parasite-fed mosquito midguts (parasite death); format: in vivo; settings: between 18 and 24 hours post-bloodmeal
Experimental: Expression levels are shown of P. falciparum genes Pfs16 and Pfs25 in ABA-supplemented parasite-fed mosquito midguts. Data are normalized to mosquito and parasite ribosomal genes s7 and A18s. Each dot represents one replicate of 10 pooled midguts. Data are shown as fold change relative to control and were analyzed by one sample t-test. * p<0.05.

Anopheles stephensi [4] = experiment: Mosquito lifespan with weekly ABA-supplemented bloodmeals; format: in vivo
Experimental: Median survival of control and ABA-treated mosquitoes from five lifespans in which mosquitoes received a weekly control or ABA-supplemented uninfected bloodmeal. Each lifespan was conducted with 300 female mosquitoes per treatment. Data were analyzed by Wilcoxon matched-pairs signed rank test.
FIG. 17A is a survival curve of mosquitoes provided weekly control or ABA-supplemented uninfected bloodmeals and maintained on 3% sucrose solution. FIG. 17B is a survival curve of P. falciparum-infected mosquitoes provided control or ABA-supplemented weekly bloodmeals. Infection status was determined by detection of PfCOX in individual mosquitoes by qRT-PCR. Data were analyzed by log-rank test and Gehan-Breslow-Wilcoxon test.

MAPK (erk, jnk, p38) = experiment: MAPK phosphorylation in mosquito midgut; format: in vivo, Anopheles stephensi; settings: 0 to 4 hours

## CC1=CC(=O)CC(C)(C)[C@@]1(O)/C=C/C(C)=C\C(=O)O (racemic) [ABA, (2Z,4E)-5-[(1S)-1-hydroxy-2,6,6-trimethyl-4-oxocyclohex-2-en-1-yl]-3-methylpenta-2,4-dienoic acid]
Anopheles stephensi [1]
  egg production or viability: does not alter
gsk3
  phosphorylation of gsk3: alters phosphorylation
P. falciparum 3D7
  gametocyte levels: no effect
P. falciparum NF54
  asexual growth: no effect
[2]; P. yoelii infection, vs non-supplemented infected mice
  increase of ABA levels in plasma: over 6 fold
[2]; oral supplementation, absence of infection
  ABA levels in plasma: did not alter
[3]
  transcript levels of PPARγ: increased
P. falciparum
  parasite death in mosquito midgut (Pfs16 and Pfs25 expression): increased parasite death
Anopheles stephensi [4]; P. falciparum-infected mosquitoes
  mosquito lifespan: does not alter
Anopheles stephensi [4]; five lifespans, weekly uninfected bloodmeal
  mosquito median survival: does not alter
Anopheles stephensi [4]; mosquitoes, weekly ABA-supplemented uninfected bloodmeal, replicates 1-5
  Median Survival: 23 days and 16 days (2×) and 21 days and 18 days
Anopheles stephensi [4]; nutrient stress: maintained on 3% sucrose solution
  mosquito lifespan: does not alter
MAPK (erk, jnk, p38)
  MAPK phosphorylation: does not alter
